Data from patent EP4778918A1, “RADIOACTIVE POSITRON-EMITTING NUCLIDE CARBON-11 LABELED COMPOUND AND RADIOACTIVE COMPOSITION” (The University of Osaka, priority 2023, dated 2025).

Tests used:
[1] = Stability of the produced [^11C]HCA2969 over time (quality test, radiochemical purity); type: physicochemical; conditions: immediately after synthesis and even 90 minutes after synthesis; final formulation, approximately 10% ethanol in physiological saline
Source text: [^11C]HCA2969 was produced according to the following procedure. A synthesis scheme is shown in FIG. 1. • (1) [^11C]CO2 was produced via nuclear reaction of ^14N(p,α)^11C using N2 gas as a target using a medical cyclotron (CYPRIS HM-18, Sumitomo Heavy Industries, Ltd.). The obtained [^11C]CO2 was introduced into a vapor phase method methyl iodide synthesizer (C-GPC-100, Sumitomo Heavy Industries, Ltd.) to synthesize […] ([^11C]CH3OTf) having high reaction activity. • (2) [^11C]CH3OTf was introduced into a reaction vessel containing 500 µL of a solution of 1 mg/mL HCA2969 precursor (QD) in acetone and 3 µL of 1 mol/L NaOH and subjected to bubbling. • (3) 100 µL of 0.1 mol/L NaOH was added to the solution obtained after the bubbling in the above step (2) and a deprotection reaction was performed at room temperature for 10 minutes. • (4) 1 mL of water for injection was added to the solution obtained after the deprotection in the above step (3), the mixture was mixed thoroughly, and the whole volume was injected into HPLC to fractionate and collect [^11C]HCA2969. A representative HPLC chromatogram is shown in FIG. 2. • (5) The fractionated and collected solution was diluted with water for injection, and the whole volume was introduced into a solid-phase extraction column (HLB column) to retain [^11C]HCA2969. […]

VLA-4 = biological target: T1, VLA-4 (Mus musculus, UniProt P09055+Q00651); experiment: [^11C]HCA2969 binding to VLA-4 in mouse monocytes (saturation, Scatchard analysis); conditions: 2 × 10^6 spleen monocytes
T1 construct: monocytes collected from a spleen of a mouse; endogenous in cells; host or cells: primary monocytes from mouse spleen
T1 sequence (Q00651 41-1039): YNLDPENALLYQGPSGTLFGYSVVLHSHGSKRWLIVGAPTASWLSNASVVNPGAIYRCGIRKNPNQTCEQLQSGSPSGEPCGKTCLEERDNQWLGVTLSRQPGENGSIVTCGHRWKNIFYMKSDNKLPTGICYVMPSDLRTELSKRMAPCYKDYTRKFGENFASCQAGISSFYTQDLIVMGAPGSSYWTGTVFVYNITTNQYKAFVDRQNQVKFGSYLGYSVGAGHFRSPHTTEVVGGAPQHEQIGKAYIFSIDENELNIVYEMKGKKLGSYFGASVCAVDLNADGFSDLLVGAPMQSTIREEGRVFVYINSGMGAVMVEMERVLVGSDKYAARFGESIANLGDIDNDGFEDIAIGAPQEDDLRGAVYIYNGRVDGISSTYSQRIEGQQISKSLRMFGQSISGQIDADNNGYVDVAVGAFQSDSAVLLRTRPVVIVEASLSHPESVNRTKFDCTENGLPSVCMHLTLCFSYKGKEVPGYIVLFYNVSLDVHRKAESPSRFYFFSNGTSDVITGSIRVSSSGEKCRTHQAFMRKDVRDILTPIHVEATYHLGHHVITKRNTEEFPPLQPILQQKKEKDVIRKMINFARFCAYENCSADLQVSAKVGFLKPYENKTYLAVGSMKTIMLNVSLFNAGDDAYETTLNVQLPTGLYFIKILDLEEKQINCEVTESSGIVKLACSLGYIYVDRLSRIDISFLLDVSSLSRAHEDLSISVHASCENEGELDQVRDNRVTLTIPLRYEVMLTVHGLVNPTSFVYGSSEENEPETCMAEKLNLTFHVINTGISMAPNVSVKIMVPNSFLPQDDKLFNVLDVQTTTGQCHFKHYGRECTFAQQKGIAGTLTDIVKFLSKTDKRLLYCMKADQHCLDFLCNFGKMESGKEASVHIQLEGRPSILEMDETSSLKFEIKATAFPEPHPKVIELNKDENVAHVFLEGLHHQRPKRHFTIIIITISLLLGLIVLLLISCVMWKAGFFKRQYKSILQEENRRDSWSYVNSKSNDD
T1 sequence (P09055 21-798): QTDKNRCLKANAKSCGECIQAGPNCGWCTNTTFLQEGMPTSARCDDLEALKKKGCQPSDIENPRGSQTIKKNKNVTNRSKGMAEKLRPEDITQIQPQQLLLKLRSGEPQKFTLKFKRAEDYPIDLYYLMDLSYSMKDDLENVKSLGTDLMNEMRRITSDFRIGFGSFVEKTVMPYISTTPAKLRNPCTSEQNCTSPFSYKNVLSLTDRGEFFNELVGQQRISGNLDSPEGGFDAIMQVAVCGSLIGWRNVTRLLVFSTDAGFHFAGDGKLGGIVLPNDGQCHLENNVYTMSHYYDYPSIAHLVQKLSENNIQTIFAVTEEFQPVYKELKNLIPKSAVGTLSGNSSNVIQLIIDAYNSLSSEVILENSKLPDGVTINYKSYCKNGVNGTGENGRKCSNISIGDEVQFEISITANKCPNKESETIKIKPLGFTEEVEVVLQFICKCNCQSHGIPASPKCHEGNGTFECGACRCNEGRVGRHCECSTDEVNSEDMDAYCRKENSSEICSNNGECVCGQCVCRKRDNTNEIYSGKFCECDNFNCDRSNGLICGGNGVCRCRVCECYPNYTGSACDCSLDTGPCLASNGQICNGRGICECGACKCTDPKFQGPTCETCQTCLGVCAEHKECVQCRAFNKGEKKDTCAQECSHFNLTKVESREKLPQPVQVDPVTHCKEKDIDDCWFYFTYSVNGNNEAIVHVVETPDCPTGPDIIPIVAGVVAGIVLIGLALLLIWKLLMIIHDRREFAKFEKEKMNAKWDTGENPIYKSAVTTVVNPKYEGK
Experimental: Monocytes collected from a mouse were used to evaluate the binding of a [^11C]HCA2969 to VLA-4.
2 × 10^6 monocytes collected from a spleen of a mouse and a [^11C]HCA2969 synthesized in the above section 1 were added to buffer (10mM Tris pH 7.5, 0.1% BSA, 150 mM NaCl, 2 mM MnCl2, 2 mM D-glucose) at concentrations of 0.025 nM, 0.1 nM, 0.4 nM, 1.6 nM, 6.4 nM and 25.6 nM, respectively, and mixed. After mixing, the cells were incubated at room temperature for 20 minutes and washed 2 times with buffer (10mM Tris pH 7.5, 0.1% BSA, 150 mM NaCl, 2 mM MnCl2, 2 mM D-glucose). Radiation dose was measured for the washed cells using a scintillation counter.

[2] = system: MRL-Pdcd1-/- and wild-type mice; experiment: Detection of myocarditis by PET/CT imaging with [^11C]HCA2969 tracer in mice; type: in vivo; conditions: about 1 to 10 MBq intravenously, days 25 to 26
Experimental: In the MRL-Pdcd1-/- and wild-type mice prepared in the above section 5, a [^11C]HCA2969 tracer (about 1 to 10 MBq) was administered intravenously via a tail vein under inhalation anesthesia with isoflurane on days 25 to 26, followed by PET/CT imaging.

[3] = system: autoimmune myocarditis model rat; experiment: Detection of autoimmune myocarditis by PET/CT imaging with [^11C]HCA2969 tracer in rats; type: in vivo, Lewis rats; conditions: autoimmune myocarditis model rats at 3 weeks of induction; about 1 to 10 MBq intravenously
Experimental: An autoimmune myocarditis model rat was prepared by administering 10 mg/ml of Pig Cardiac Myosin (purified in-house from pig heart) and Adjuvant (CFA 10 mg/ml; Chondrex, Inc., 7002) to Lewis rats (male, 8 weeks old). A day of administration of the Pig Cardiac Myosin was set as Day 0. In this model, myocarditis reached its climax on Day 21. […] On Day 12, infiltration of inflammatory cells into cardiac muscle tissue began, and, on Day 19, more intense infiltration of the inflammatory cells was observed. On Day 25, destruction of the cardiac muscle tissue due to inflammation was observed.
In autoimmune myocarditis model rat prepared in the above section 2, a [^11C]HCA2969 tracer at about 1 to 10 MBq was administered intravenously via a tail vein under inhalation anesthesia with isoflurane at 3 weeks of induction, which is the climax of myocarditis, followed by PET/CT imaging.

PD1-/- mice = experiment: Determination of therapeutic effect on myocarditis by PET/CT with [^11C]HCA2969 tracer; type: in vivo
Experimental: Groups of wild-type mice, placebo PD1-/- mice, AJM300-administered PD1-/- mice and anti-VLA-4 neutralizing antibody-administered PD 1-/- mice at 4 weeks of age were prepared. The placebo group was fed a normal diet and the AJM300-administered group was fed a diet containing 1% AJM300 from day 14 to day 28 after the start of rearing. The anti-VLA-4 neutralizing antibody-administered group was fed a normal diet and administered with anti-VLA -4 neutralizing antibody (10 mg/kg) intraperitoneally on days 14 and 21 after the start of rearing. On day 28 after the start of rearing, each mouse was anesthetized with isoflurane (1 to 3% in 2 L of O2) and injected with a [^11C]HCA2969 tracer (1 to 10 MBq: 10 µg of unlabeled HCA2969 containing 10 MBq of PET tracer) via a tail vein. Twenty minutes after the injection, PET/CT imaging was performed for 10 minutes.

EAE mice = conditions: mouse, in vivo
EAE model mice = conditions: mouse, in vivo
MRL-Pdcd1-/- mice = experiment: Administration of VLA4 inhibitor AJM300 to myocarditis model mice (survival, echocardiography); type: in vivo; conditions: compared with AJM300(-) group
Experimental: The AJM300 group (+) was administered with a mixed diet containing 1% of AJM300 from 2 weeks of age until death.
At 28 days of age, 9 mice in the AJM300(-) group and 10 mice in the AJM300(+) group were evaluated for cardiac function by echocardiography and then euthanized to collect heart and blood samples.

[4] = system: autoimmune myocarditis model rats; experiment: Anti-VLA-4 neutralizing antibody or AJM300 administration in rat autoimmune myocarditis model (cardiac function); type: in vivo, Lewis rats; conditions: 21 days after induction of myocarditis; diet with 1% AJM300, or 5 mg/kg antibody intravenously at 0w, 1w, 2w, 3w; compared with placebo group
Source text: Study groups were: placebo group (5 animals), AJM300-administered group (4 animals), and neutralizing antibody-administered group (5 animals) administered with anti-VLA-4-neutralizing antibody. The placebo group was fed a diet mixed with placebo (0.43% METOLOSE + 0.14% Ac-Di-Sol) from 3 days before induction of myocarditis to 3 weeks. The AJM300-administered group was fed a diet mixed with 1% AJM300 from 3 days before induction of myocarditis to 3 weeks. The neutralizing antibody-administered group was intravenously administered with 5 mg/kg of neutralizing antibody at the time of induction of myocarditis (0w), 1 week after induction of myocarditis (1w), 2 weeks after induction of myocarditis (2w), and 3 weeks after induction of myocarditis (3w). Left ventricular contractile performance and heart rate were evaluated 21 days after induction of myocarditis.

[5] = echocardiography at 28 days of age, diet containing 1% of AJM300, t-test p=0.0231

radiochemical purity [1] [%]	Bmax (VLA-4) [Bq]	Kd (VLA-4; 0.025 nM to 25.6 nM, room temperature, 20 minutes, read-out: equilibrium dissociation constant Kd) [nM]	tracer accumulation in hearts ([2]; two MRL-Pdcd1-/- mice)	tracer accumulation in hearts ([2]; two wild-type mice)	tracer accumulation in hearts [3]	accumulation of the [^11C]HCA2969 tracer in the cardiac region (PD1-/- mice; PD1-/- mouse, untreated, day 28, imaging twenty minutes after the injection)	SUV mean (EAE mice)	SUV median (EAE mice)	accumulation of the tracer signal in the brain (EAE model mice)	accumulation of the tracer signal in the spinal cord (EAE model mice)	SMILES	heart rate (MRL-Pdcd1-/- mice; [5])	left ventricular contractile performance: % Fractional Shortening (%) (MRL-Pdcd1-/- mice; [5])	Survival period (Kaplan-Meier) (MRL-Pdcd1-/- mice; mixed diet containing 1% of AJM300 from 2 weeks of age, Log-rank test p=0.0022)	cardiac function (left ventricular contractile performance and heart rate) [4]	accumulation of the [^11C]HCA2969 tracer in the cardiac region (PD1-/- mice; treated PD1-/- mice compared to the placebo group, diet containing 1% AJM300 day 14 to day 28, or antibody 10 mg/kg intraperitoneally on days 14 and 21)
≥ 90	81.85	0.16	observed	no tracer accumulation	no tracer accumulation	observed	high accumulation	high accumulation	increasing trend	significant increase	CN(C)c1ccc2c(c1)c(=O)n(-c1ccc(CC(NC(=O)c3c(Cl)cccc3Cl)C(=O)O)cc1)c(=O)n2[11CH3] (stereo not shown) [[^11C]HCA2969]					
											COC(=O)[C@H](Cc1ccc(-n2c(=O)c3cc(N(C)C)ccc3n(C)c2=O)cc1)NC(=O)c1c(Cl)cccc1Cl [AJM300, carotegrast methyl]	significantly ameliorated bradycardia	significantly improved	significantly prolonged	no effect	lower
